The experiment addresses T1, recombinant human CL receptor/RAMP1 (Homo sapiens, UniProt O60894+Q16602).
T1 construct: expressed in transfected cells
Briefly: Recombinant receptor functional assay (cAMP, HTRF). As to conditions: HEK 293 cells expressing human CL receptor/RAMP1; antagonism of 1.2 nM human α-CGRP-stimulated cAMP. Format: cell-based. Here is the method: RECOMBINANT RECEPTOR: Human CL receptor (Genbank accession number L76380) was subcloned into the expression vector pIREShyg2 (BD Biosciences Clontech) as a 5′NheI and 3′ PmeI fragment. Human RAMP1 (Genbank accession number AJ001014) was subcloned into the expression vector pIRESpuro2 (BD Biosciences Clontech) as a 5′NheI and 3′NotI fragment. HEK 293 cells (human embryonic kidney cells; ATCC #CRL-1573) were cultured in DMEM with 4.5 g/L glucose, 1 mM sodium pyruvate and 2 mM glutamine supplemented with 10% fetal bovine serum (FBS), 100 units/mL penicillin and 100 μg/mL streptomycin, and maintained at 37° C. and 95% humidity. Cells were subcultured by treatment with 0.25% trypsin with 0.1% EDTA in HBSS. Stable cell line generation was accomplished by co-transfecting 10 μg of DNA with 30 μg Lipofectamine 2000 (Invitrogen) in 75 cm^2 flasks. CL receptor and RAMP1 expression constructs were co-transfected in equal amounts. […]
RECOMBINANT RECEPTOR FUNCTIONAL ASSAY: Cells were resuspended in DMEM/F12 (Hyclone) supplemented with 1 g/L BSA and 300 μM isobutyl-methylxanthine. […] Raw data were transformed into concentration of cAMP using a standard curve then dose response curves were plotted and inflection point (IP) values were determined.
(In general: TR-FRET usually uses a lanthanide donor and a delayed reading to cut background.)

Structures are written as SMILES.

T1 sequence (Q16602 23-461): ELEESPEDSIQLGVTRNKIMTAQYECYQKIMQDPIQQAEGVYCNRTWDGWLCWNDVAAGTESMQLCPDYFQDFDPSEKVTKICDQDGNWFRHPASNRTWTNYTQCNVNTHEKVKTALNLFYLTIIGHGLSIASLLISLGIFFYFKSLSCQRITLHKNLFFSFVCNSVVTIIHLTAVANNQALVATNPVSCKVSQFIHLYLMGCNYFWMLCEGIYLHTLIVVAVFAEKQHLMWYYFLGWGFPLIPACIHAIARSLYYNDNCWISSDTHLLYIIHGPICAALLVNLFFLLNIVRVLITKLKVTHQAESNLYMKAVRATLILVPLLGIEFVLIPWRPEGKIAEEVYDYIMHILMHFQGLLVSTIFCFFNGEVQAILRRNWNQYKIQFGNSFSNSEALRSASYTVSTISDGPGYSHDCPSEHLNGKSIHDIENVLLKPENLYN
T1 sequence (O60894 27-148): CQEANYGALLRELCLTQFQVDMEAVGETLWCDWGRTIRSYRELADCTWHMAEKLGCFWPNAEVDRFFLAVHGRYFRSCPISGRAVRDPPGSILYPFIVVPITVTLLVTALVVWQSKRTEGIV

For `C[C@@H]1[C@H](c2ccccc2)C[C@H](NC(=O)c2ccc3c(c2)CC2(C3)OC(=O)Nc3ncccc32)C(=O)N1CC(F)(F)F` (stereo partly drawn) [Example 1, N-((3S,5S,6R)-6-Methyl-2-oxo-5-phenyl-1-(2,2,2-trifluoroethyl)piperidin-3-yl)-2′-oxo-1,1′,2′,3-tetrahydrospiro[indene-2,4′-pyrido[2,3-d][1,3]oxazine]-5-carboxamide], the IC50 is 89 nM.

By IC50 is commonly meant the concentration that inhibits the measured activity by half.

(Values after patent publication US20150087641A1, “HETEROCYCLIC CGRP RECEPTOR ANTAGONISTS” (Merck Sharp & Dohme Corp., priority 2012, published 2015).)
